# Laboratory results as given in patent US6838580B2, “Opioid derivative” (Teikoku Seiyaku Co., Ltd., priority 2002, dated 2005).
# Marks after values point to notes of the source that are not given here.
# Tests used:
# SD Male rats = assay: Analgesic effect, Randoll-Seritto hind limb pressure method, intracerebroventricular administration; format: in vivo; details: rat, i.c.v.
# Text: SD Male rats, weighing 110 to 130 g, were used. One group consisted of five rats. The analgesic effects were examined by a Randoll-Seritto method. […] The threshold was expressed in mm Hg. During the measurement, the upper limit of the pressure applied to a hind limb was 100 mm Hg in order to avoid damage of the tissues.
# 1) When performing intracerebroventricular administration (i.c.v.), a rat was fixed to a brain stereotactic fixing apparatus under slight ether anesthesia, the skin at a head was dissected, and an administration cannula was inserted into a place at a transverse of […] from a bregma position and a depth of 3.5 to 4.0 mm. The administration volume was 10 μl/animal. Observation of the analgesic action was performed before administration, and at 30 minutes, and 1, 2, 3, 4 and 5 hours after administration. Doses of both compounds were 0.1, 1 and 10 μg/animal. Separately, a group to which 5 mg/kg of naltrexone hydrochloride was administered subcutaneously immediately after compound of Ex.1 10 μg/animal i.c.v and a group to which 5 mg/kg of naltrexone hydrochloride was administered subcutaneously immediately after compound of Ex.4 10 μg/animal i.c.v. was made. In addition, as morphine hydrochloride at a dose of 3 μg/animal i.c.v. group was used as a positive control group and a physiological saline 10 μl/animal i.c.v. group as a control group was made, respectively.
# In order to perform a significant difference test between respective administration groups and control groups, and between values at respective times before administration and after administration, a Dunnet multiple comparative test method was used. In the statistical processing for performing a significant difference test between morphine hydrochloride administration groups and control groups, Student t-test was used. For performing a significant difference test between values at respective times before administration and after administration in morphine hydrochloride administration groups, a Dunnet multiple comparative test method was used. A significant level was at 5 or lower % risk rate (two-tailed test).
# δ-opioid receptor = biological target: T1, δ-opioid receptor (Rattus norvegicus, UniProt P33533); assay: Competitive receptor binding assay, synaptic membrane fraction, [3H]DPDPE; details: rat brain synaptic membrane, read-out: Affinity of receptor (Ki, nM) δ
# T1 construct: synaptic membrane fraction obtained from the rat brain tissue; from tissue; host or cells: Sprague-Dawley rat brain without cerebellum, synaptic membrane (P2) fraction
# Method: Regarding the opioid peptide derivatives synthesized in Examples and Reference Examples, the μ- and δ-opioid receptor affinities were obtained by a competitive receptor assay using the synaptic membrane fraction obtained from the rat brain tissue according to the known methods. That is, Sprague-Dawley rats having an average weight of 150-180 g were killed by decapitation, the brain tissue from which cerebellum had been removed was homogenized in 0.32M sucrose and 1 mM HEPES (pH 7.5) containing 50 μg/ml soybean trypsin inhibitor, fractionated and centrifuged to obtain the synaptic membrane fraction (P2 fraction), which was pre-incubated in 50 mM HEPES (pH 7.5) containing 100 mM NaCl, 0.1 mM GDP and soybean trypsin inhibitor to remove endogenous ligands from the P2 fraction.
# A competitive receptor binding assay (Radiolabeled receptor assay: RRA) based on an exchange reaction between a radioactive ligand for the synaptic membrane fraction and a peptide derivative to be tested was performed by using tritium-labeled [^3H]DAGO which is a μ-opioid receptor agonist and tritium-labeled [^3H]DPDPE which has the high δ-opioid receptor selectivity, and incubating an aliquot of the synaptic membrane with the peptide derivative to be tested for a period of time. Upon this, an exchange reaction between a ligand was performed under constant conditions, the radiation remaining in the synaptic membrane fraction was measured, and an amount of the ligand adsorbed onto the synaptic membrane fraction is calculated. By assuming that binding with a receptor occurs in competition between a radioactive ligand and an end ligand, the concentration (IC50) at which the maximum specific binding of the radioactive ligand is 50% inhibited was obtained, from which the affinity constant (Ki) was calculated by a method of Cheng et al. (Biochem. Pharmcol., 22, 3099(1973)).
# μ-opioid receptor = μ-opioid receptor (Cavia porcellus, UniProt A0ACM8Q262); assay: Guinea pig ileum (GPI) assay, inhibition of electrically stimulated constriction; format: cell-based; details: agonist activity, read-out: GPI (IC50 ± S.E.)
# Method: An assay test for agonist and antagonist activities of opioid compounds was performed using guinea pig ileum (GPI) and mouse seminiferous tract (MVD). That is, male guinea pigs having the weight of around 300 g were killed by exsanguination, an ileum section having a length of around 10 cm was isolated from an ileum close to an ileum-caecum region was held at 36° C. The ileum section was placed in a Magnus tube treated with an oxygen mixture (95% O2/5% CO2) and filled with Krebs solution in the state where the rest tension of 1 g was applied with an isotonic transducer and, then, was performed. Then, the electrical stimulation was applied at 30V for 0.5 ms. via electrode previously installed in the Magnus tube to constrict guinea pig ileum longitudinal muscle and, after constriction was stabilized, a peptidase inhibitor was added. Then, the present peptide derivative to be tested was added, the constriction of guinea pig ileum longitudinal muscle was taken by GrassFTO 0.3 transducer and monitored by an amplifier and a recorder connected to the transducer. The opioid activity was determined by constriction inhibition after addition of the peptide derivative to be tested and constriction inhibition cancellation by addition of naloxone, a selective opioid antagonist. […]
# [1] = 0.1 μg/animal, before administration
# [2] = 1 μg/animal, before administration
# [3] = 10 μg/animal + Naltrexon 5 mg/kg s.c., 0.5 hr
# [4] = 10 μg/animal + Naltrexon 5 mg/kg s.c., 1 hr
# [5] = 10 μg/animal + Naltrexon 5 mg/kg s.c., 2 hr
# [6] = 10 μg/animal + Naltrexon 5 mg/kg s.c., 3 hr
# [7] = 10 μg/animal + Naltrexon 5 mg/kg s.c., 4 hr
# [8] = 10 μg/animal + Naltrexon 5 mg/kg s.c., 5 hr
# [9] = 10 μg/animal + Naltrexon 5 mg/kg s.c., before administration
# [10] = 10 μg/animal followed by naltrexone 5 mg/kg s.c.
# [11] = 10 μg/animal, before administration
# T1 sequence (P33533 whole entry): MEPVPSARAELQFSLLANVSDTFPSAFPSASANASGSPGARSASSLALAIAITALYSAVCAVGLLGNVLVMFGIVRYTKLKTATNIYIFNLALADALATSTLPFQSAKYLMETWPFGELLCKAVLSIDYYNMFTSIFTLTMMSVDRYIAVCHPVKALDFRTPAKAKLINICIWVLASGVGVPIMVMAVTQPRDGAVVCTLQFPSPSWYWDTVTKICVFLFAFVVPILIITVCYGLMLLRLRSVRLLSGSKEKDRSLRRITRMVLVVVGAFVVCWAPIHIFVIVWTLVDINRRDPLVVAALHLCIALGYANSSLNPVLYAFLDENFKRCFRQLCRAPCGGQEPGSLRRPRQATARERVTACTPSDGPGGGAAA
# Sequence of μ-opioid receptor (A0ACM8Q262 1-400): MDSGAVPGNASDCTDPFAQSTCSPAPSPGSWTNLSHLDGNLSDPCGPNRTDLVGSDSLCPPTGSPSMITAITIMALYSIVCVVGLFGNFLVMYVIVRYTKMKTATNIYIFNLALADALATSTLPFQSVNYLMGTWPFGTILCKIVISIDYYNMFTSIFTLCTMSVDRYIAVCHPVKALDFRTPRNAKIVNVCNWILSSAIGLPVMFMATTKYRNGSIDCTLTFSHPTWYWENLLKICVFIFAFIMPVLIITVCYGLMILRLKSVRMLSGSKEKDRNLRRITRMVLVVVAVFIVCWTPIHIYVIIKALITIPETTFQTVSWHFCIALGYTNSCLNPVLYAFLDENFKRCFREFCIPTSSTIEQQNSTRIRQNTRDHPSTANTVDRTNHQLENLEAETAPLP
Compound,"Threshold (mmHg) (SD Male rats; 0.1 μg/animal, 0.5 hr)","Threshold (mmHg) (SD Male rats; 0.1 μg/animal, 1 hr)","Threshold (mmHg) (SD Male rats; 0.1 μg/animal, 2 hr)","Threshold (mmHg) (SD Male rats; 0.1 μg/animal, 3 hr)","Threshold (mmHg) (SD Male rats; 0.1 μg/animal, 4 hr)","Threshold (mmHg) (SD Male rats; 0.1 μg/animal, 5 hr)",Threshold (mmHg) (SD Male rats; [1]),"Threshold (mmHg) (SD Male rats; 1 μg/animal, 0.5 hr)","Threshold (mmHg) (SD Male rats; 1 μg/animal, 1 hr)","Threshold (mmHg) (SD Male rats; 1 μg/animal, 2 hr)","Threshold (mmHg) (SD Male rats; 1 μg/animal, 3 hr)","Threshold (mmHg) (SD Male rats; 1 μg/animal, 4 hr)","Threshold (mmHg) (SD Male rats; 1 μg/animal, 5 hr)",Threshold (mmHg) (SD Male rats; [2]),"Change in escape reaction threshold / analgesic effect, in words (SD Male rats; 10 μg/animal)",Threshold (mmHg) (SD Male rats; [3]),Threshold (mmHg) (SD Male rats; [4]),Threshold (mmHg) (SD Male rats; [5]),Threshold (mmHg) (SD Male rats; [6]),Threshold (mmHg) (SD Male rats; [7]),other results
"Cc1cc(O)cc(C)c1C[C@H](N)C(=O)NCCCCNC(=O)[C@@H](N)Cc1c(C)cc(O)cc1C.Cl.Cl [Ex.1, 1,4-Bis-(Dmt-amino)butane.2HCl]",47 ± 1,50 ± 2,50 ± 1,48 ± 2,48 ± 1,49 ± 1,47 ± 1,51 ± 3,54 ± 3,49 ± 1,49 ± 2,48 ± 2 mmHg,47 ± 1 mmHg,47 ± 2,significant increase in the threshold was seen in the 10 μg/administration group 30 minutes and 1 hour after administration,49 ± 1 mmHg,53 ± 3 mmHg,54 ± 2,52 ± 2,49 ± 1 mmHg,"Threshold (mmHg) (SD Male rats; [8]): 50 ± 1 mmHg; Threshold (mmHg) (SD Male rats; [9]): 47 ± 2 mmHg; Change in escape reaction threshold / analgesic effect, in words (SD Male rats; [10]): dissipated by naltrexone 5 mg/kg subcutaneous administration; Threshold (mmHg) (SD Male rats; 10 μg/animal, 0.5 hr): 61 ± 8*^,$ mmHg; Threshold (mmHg) (SD Male rats; 10 μg/animal, 1 hr): 61 ± 5**^,$ mmHg; Threshold (mmHg) (SD Male rats; 10 μg/animal, 2 hr): 54 ± 4 mmHg; Threshold (mmHg) (SD Male rats; 10 μg/animal, 3 hr): 51 ± 3 mmHg; Threshold (mmHg) (SD Male rats; 10 μg/animal, 4 hr): 52 ± 2 mmHg; Threshold (mmHg) (SD Male rats; 10 μg/animal, 5 hr): 52 ± 1 mmHg; Threshold (mmHg) (SD Male rats; [11]): 48 ± 2 mmHg; Ki (δ-opioid receptor): 53.4 ± 14.8 nM; IC50 (μ-opioid receptor): 5.33 ± 0.65 nM"
"Cc1cc(O)cc(C)c1C[C@H](N)C(=O)NCCCCCCNC(=O)[C@@H](N)Cc1c(C)cc(O)cc1C [Ex.4, 1,6-Bis(Dmt-amino)hexane.2HCl]",47 ± 2,47 ± 1,50 ± 2,49 ± 2,49 ± 2,47 ± 1,45 ± 2,51 ± 2,51 ± 2,51 ± 3,50 ± 2,"53 ± 2*^,$ mmHg","52 ± 1*^,$ mmHg",46 ± 1,significant change in the threshold was not seen at any time after administration,"55 ± 2*^,$ mmHg","52 ± 2*^,$ mmHg",51 ± 2,51 ± 1,"52 ± 1*^,$ mmHg","Change in escape reaction threshold / analgesic effect, in words (SD Male rats; 1 μg/animal): significant increase in the threshold was seen 4 hours and 5 hours after administration; Threshold (mmHg) (SD Male rats; [8]): 50 ± 1 mmHg; Threshold (mmHg) (SD Male rats; [9]): 46 ± 1 mmHg; Change in escape reaction threshold / analgesic effect, in words (SD Male rats; [10]): significant increase in the threshold was seen 30 minutes, 1 hour and 4 hours after administration; Threshold (mmHg) (SD Male rats; 10 μg/animal, 0.5 hr): 50 ± 2 mmHg; Threshold (mmHg) (SD Male rats; 10 μg/animal, 1 hr): 47 ± 0 mmHg; Threshold (mmHg) (SD Male rats; 10 μg/animal, 2 hr): 49 ± 2 mmHg; Threshold (mmHg) (SD Male rats; 10 μg/animal, 3 hr): 48 ± 2 mmHg; Threshold (mmHg) (SD Male rats; 10 μg/animal, 4 hr): 48 ± 2 mmHg; Threshold (mmHg) (SD Male rats; 10 μg/animal, 5 hr): 49 ± 1 mmHg; Threshold (mmHg) (SD Male rats; [11]): 46 ± 1 mmHg; Ki (δ-opioid receptor): 46.1 ± 8.8 nM"
